Reference: patent US20090318546A1, “Chromen-2-One Derivatives” (NOVARTIS AG, priority 2006, published 2009)
pEC50: −log10 of the molar value.

Experiments:
Type in all cases: cell-based
S1P-4 = target: T1, S1P-4 (Homo sapiens, UniProt O95977); assay: FLIPR calcium flux assay, S1P-4; settings: agonist activity
T1 construct: expressed in transfected cells; host or cells: CHO cells (G418 selection)
T1 sequence (O95977 1-384): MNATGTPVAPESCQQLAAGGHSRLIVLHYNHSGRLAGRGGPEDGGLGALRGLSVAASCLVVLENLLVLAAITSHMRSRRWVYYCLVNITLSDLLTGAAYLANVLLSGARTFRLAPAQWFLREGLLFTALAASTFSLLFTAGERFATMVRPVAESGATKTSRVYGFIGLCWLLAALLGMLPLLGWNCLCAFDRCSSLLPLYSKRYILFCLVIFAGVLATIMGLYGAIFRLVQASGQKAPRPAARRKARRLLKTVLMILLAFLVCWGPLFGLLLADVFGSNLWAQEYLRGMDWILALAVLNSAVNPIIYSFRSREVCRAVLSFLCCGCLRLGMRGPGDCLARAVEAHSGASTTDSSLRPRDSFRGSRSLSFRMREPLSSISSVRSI

S1P3 = target: T2, S1P3 (Homo sapiens, UniProt Q99500); assay: FLIPR calcium flux assay, CHO cells expressing S1P3; settings: agonist activity; read-out: EC50 for S1P-3
T2 construct: expressed in transfected cells; host or cells: CHO cells (G418 selection)
T2 sequence (Q99500 whole entry): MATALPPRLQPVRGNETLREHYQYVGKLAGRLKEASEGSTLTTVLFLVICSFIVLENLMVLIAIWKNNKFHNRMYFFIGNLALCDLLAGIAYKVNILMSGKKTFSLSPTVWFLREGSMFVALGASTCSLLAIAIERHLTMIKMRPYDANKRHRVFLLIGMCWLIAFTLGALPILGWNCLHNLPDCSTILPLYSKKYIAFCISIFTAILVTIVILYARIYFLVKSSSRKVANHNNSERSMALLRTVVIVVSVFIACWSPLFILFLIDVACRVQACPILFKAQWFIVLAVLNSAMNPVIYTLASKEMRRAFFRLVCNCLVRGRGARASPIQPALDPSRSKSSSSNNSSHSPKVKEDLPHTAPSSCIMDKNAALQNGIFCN
Description: (§1) A.2 FLIPR Calcium Flux Assay
(§2) Compounds of the invention are tested for agonist activity on S1P1, S1P3, S1P5, and S1P6 with a FLIPR calcium flux assay. Briefly, CHO cells expressing an S1P receptor are maintained in F-12K medium (ATCC), containing 5% FBS, with 500 ug/ml of G418. Prior to the assay, the cells are plated in 384 black clear bottom plates at the density of 10,000 cells/well/25 µl in the medium of F-12K containing 1% FBS. The second day, the cells are washed three times (25 μl/each) with washing buffer. About 25 μl of dye are added to each well and incubated for 1 hour at 37° C. and 5% CO2. The cells are then washed four times with washing buffer (25 μl/each). The calcium flux is assayed after adding 25 μl of SEW2871 (published by Rosen et al., used as reference) solution to each well of cells. The same assay is performed with cells expressing each of the different S1P receptors. Titration in the FLIPR calcium flux assay is recorded over a 3-minute interval, and quantitated as maximal peak height percentage response relative to S1P-1 activation. The compounds of the invention are active in this assay at a concentration of from 10^−12 and […].

S1P1 = target: T3, S1P1 (Homo sapiens, UniProt P21453); assay: FLIPR calcium flux assay, CHO cells expressing S1P1; settings: agonist activity; read-out: EC50 for S1P-1
T3 construct: expressed in transfected cells; host or cells: CHO cells (G418 selection)
T3 sequence (P21453 whole entry): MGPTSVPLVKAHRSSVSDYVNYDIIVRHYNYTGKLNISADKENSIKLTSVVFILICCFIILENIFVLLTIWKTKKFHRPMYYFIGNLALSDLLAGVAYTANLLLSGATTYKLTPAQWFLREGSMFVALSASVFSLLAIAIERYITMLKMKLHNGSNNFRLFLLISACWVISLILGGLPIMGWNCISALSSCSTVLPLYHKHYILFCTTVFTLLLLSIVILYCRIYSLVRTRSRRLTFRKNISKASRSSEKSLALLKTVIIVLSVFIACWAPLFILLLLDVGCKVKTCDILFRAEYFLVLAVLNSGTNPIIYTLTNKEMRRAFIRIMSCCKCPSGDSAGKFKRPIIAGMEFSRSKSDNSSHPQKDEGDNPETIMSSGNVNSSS
Description: as §1, §2

S1P-2 = target: T4, S1P-2 (Homo sapiens, UniProt O95136); assay: FLIPR calcium flux assay, S1P-2; settings: agonist activity
T4 construct: expressed in transfected cells; host or cells: CHO cells (G418 selection)
T4 sequence (O95136 whole entry): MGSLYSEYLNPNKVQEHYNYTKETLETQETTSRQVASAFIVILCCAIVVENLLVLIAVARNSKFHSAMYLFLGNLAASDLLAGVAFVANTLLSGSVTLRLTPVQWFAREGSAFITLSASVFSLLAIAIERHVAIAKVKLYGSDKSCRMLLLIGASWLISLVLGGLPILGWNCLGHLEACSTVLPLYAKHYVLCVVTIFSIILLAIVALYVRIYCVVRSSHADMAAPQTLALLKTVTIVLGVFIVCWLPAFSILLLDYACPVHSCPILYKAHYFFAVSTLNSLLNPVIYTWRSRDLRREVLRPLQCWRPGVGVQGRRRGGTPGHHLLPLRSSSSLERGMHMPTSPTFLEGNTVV
Description: as §1, §2

S1P5 = target: T5, S1P5 (Homo sapiens, UniProt Q9H228); assay: FLIPR calcium flux assay, CHO cells expressing S1P5; settings: agonist activity; read-out: EC50 for S1P-5
T5 construct: expressed in transfected cells; host or cells: CHO cells (G418 selection)
T5 sequence (Q9H228 whole entry): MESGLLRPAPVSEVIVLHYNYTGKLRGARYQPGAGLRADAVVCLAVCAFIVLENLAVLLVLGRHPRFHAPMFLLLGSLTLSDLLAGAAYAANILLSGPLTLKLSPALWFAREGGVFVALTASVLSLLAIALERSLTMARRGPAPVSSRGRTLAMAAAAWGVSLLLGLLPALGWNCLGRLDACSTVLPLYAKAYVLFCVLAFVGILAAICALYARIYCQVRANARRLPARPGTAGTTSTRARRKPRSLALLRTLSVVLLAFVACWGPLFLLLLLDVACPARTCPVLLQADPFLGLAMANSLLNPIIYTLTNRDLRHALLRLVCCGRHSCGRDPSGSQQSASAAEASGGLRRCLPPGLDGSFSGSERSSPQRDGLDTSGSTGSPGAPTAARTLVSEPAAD
Description: as §1, §2

Q: `CCCc1c(OC)ccc2cc(C(=O)Nc3ccc(CN)cc3)c(=O)oc12` [Example 1, 7-Methoxy-2-oxo-8-propyl-2H-chromene-3-carboxylic acid (4-aminomethyl-phenyl)-amide] was tested. Which pEC50 (S1P-4) did it give?
A: < 6.00

Q: What about the pEC50 (S1P3) of the same compound?
A: < 6.00

Q: And the pEC50 (S1P1)?
A: 8.06

Q: And the pEC50 (S1P-2)?
A: < 6.00

Q: What about the pEC50 (S1P5) of the same compound?
A: < 6.00
